Experimental data: patent US20250099535A1, “GEPOTIDACIN AND VANCOMYCIN FOR USE IN THE TREATMENT OF AN INFECTION CAUSED BY STAPHYLOCOCCUS SAPROPHYTICUS” (GlaxoSmithKline Intellectual Property Development Limited, priority 2022, published 2025)
Converted amounts (≈) assume the structure as drawn. Where two headings read alike, the source gives them in different places.

Legend:
Format in all cases: cell-based
[1] = system: Enterococcus faecalis; assay: Baseline broth microdilution MIC (CLSI M07); conditions: for MIC: Enterococcus faecalis
Description: (§1) MIC values were determined in triplicate by Clinical and Laboratory Standards Institute (CLSI) […] (2018) reference broth microdilution (BMD) using cation adjusted Mueller Hinton broth (CAMHB) to determine a consensus median baseline MIC value for each isolate and compound. As required by CLSI M100 (2021), quality control (QC) strains Escherichia coli ATCC 25922, Pseudomonas aeruginosa ATCC 27853, Staphylococcus aureus 29213, and Enterococcus faecalis ATCC 29212 were tested concomitantly with the clinical isolates. (QC data not shown).

[2] = system: Staphylococcus saprophyticus; assay: Baseline broth microdilution MIC (CLSI M07)
Description: as §1

[3] = system: Staphylococcus saprophyticus; assay: Time-kill kinetic assay; conditions: 1× MIC, 5 S. saprophyticus isolates
Description: CAMHB was used for the follow-up time-kill kinetic studies. Each organism was tested in media containing either compound alone, or both, at ½×, ¼×, and 1× their respective MICs. Time-kill concentration tubes were sampled at time 0 hours (T0), T2, T4, T8, and T24. Samples were serially diluted ten-fold up to 8 times in tubes with […] of a 0.85% saline solution. A volume of 0.1 mL was then plated onto tryptic-soy agar with 5% sheep blood from the original sample and subsequent dilutions. Plates were incubated for 24 hours at 35° C. before quantifying the viable cell count for each tube at the specified times (T0-T24).
As described in the CLSI M26-A manual, bactericidal activity was defined as a 3-log10 decrease in CFU/mL below the starting inoculum that was maintained for 24 hours. […] The number of surviving organisms in the presence of the combination was required to be ≥2 log10 CFU/mL below the starting inocula and at least one of the drugs should not affect the growth curve of the tested organism.

O=c1ccc2ncc(=O)n3c2n1C[C@H]3CN1CCC(NCc2cc3c(cn2)OCCC3)CC1 [gepotidacin, (2R)-2-({4-[(3,4-dihydro-2H-pyrano[2,3-c]pyridin-6-ylmethyl)amino]-1-piperidinyl}methyl)-1,2-dihydro-3H,8H-2a,5,8a-triazaacenaphthylene-3,8-dione] was tested, and the MIC ([1]; isolate E. faecalis 1097863, CAMHB, read-out: GEP MIC) was 1 µg/mL (≈ 2.23 µM), the MIC ([1]; isolate E. faecalis 1103597, CAMHB, read-out: GEP MIC) was 0.5 µg/mL (≈ 1.11 µM) and the MIC ([1]; isolate E. faecalis 1103850, CAMHB, read-out: GEP MIC) was 0.5 µg/mL (≈ 1.11 µM). It also gave an MIC ([1]; isolate E. faecalis 1111210, CAMHB, read-out: GEP MIC) of 1 µg/mL (≈ 2.23 µM), an MIC ([1]; isolate E. faecalis 1124756, CAMHB, read-out: GEP MIC) of 0.5 µg/mL (≈ 1.11 µM) and an MIC ([2]; isolate S. saprophyticus 1106006, CAMHB, read-out: GEP MIC) of 0.25 µg/mL (≈ 0.557 µM). It also gave an MIC ([2]; isolate S. saprophyticus 1113726, CAMHB, read-out: GEP MIC) of 0.12 µg/mL (≈ 0.268 µM), an MIC ([2]; isolate S. saprophyticus 1115244, CAMHB, read-out: GEP MIC) of 0.12 µg/mL (≈ 0.268 µM) and an MIC ([2]; isolate S. saprophyticus 1125669, CAMHB, read-out: GEP MIC) of 0.25 µg/mL (≈ 0.557 µM). For the same compound, the MIC ([2]; isolate S. saprophyticus 1129086, CAMHB, read-out: GEP MIC) was 0.25 µg/mL (≈ 0.557 µM) and the “Bactericidal activity (3-log10 decrease in CFU/mL below the starting inoculum maintained for 24 hours)” value [3] was “not achieved”.
With CN[C@H](CC(C)C)C(=O)N[C@H]1C(=O)N[C@@H](CC(N)=O)C(=O)N[C@H]2C(=O)N[C@H]3C(=O)N[C@H](C(=O)N[C@H](C(=O)O)c4cc(O)cc(O)c4-c4cc3ccc4O)[C@H](O)c3ccc(c(Cl)c3)Oc3cc2cc(c3O[C@@H]2O[C@H](CO)[C@@H](O)[C@H](O)[C@H]2O[C@H]2C[C@](C)(N)[C@H](O)[C@H](C)O2)Oc2ccc(cc2Cl)[C@H]1O [vancomycin] the MIC ([1]; read-out: VANC MIC) was 1 µg/mL (≈ 0.69 µM), the “VANC MIC” value ([1]; isolate E. faecalis 1103597, CAMHB) was 1 µg/mL and the “VANC MIC” value ([1]; isolate E. faecalis 1103850, CAMHB) was 1 µg/mL. The “VANC MIC” value ([1]; isolate E. faecalis 1111210, CAMHB) was 1 µg/mL, the “VANC MIC” value ([1]; isolate E. faecalis 1124756, CAMHB) was 1 µg/mL and the MIC ([2]; read-out: VANC MIC, isolate S. saprophyticus 1106006, CAMHB) was 0.5 µg/mL (≈ 0.345 µM). The MIC ([2]; read-out: VANC MIC, isolate S. saprophyticus 1113726, CAMHB) was 1 µg/mL (≈ 0.69 µM), the MIC ([2]; read-out: VANC MIC, isolate S. saprophyticus 1115244, CAMHB) was 1 µg/mL (≈ 0.69 µM) and the MIC ([2]; read-out: VANC MIC, isolate S. saprophyticus 1125669, CAMHB) was 1 µg/mL (≈ 0.69 µM). For the same compound, the MIC ([2]; read-out: VANC MIC, isolate S. saprophyticus 1129086, CAMHB) was 0.5 µg/mL (≈ 0.345 µM) and the “Bactericidal activity (3-log10 decrease in CFU/mL below the starting inoculum maintained for 24 hours)” value [3] was “not achieved”.
